# Values quoted from earlier work, collected in patent US20100221334A1, “COMPOSITIONS INCLUDING LEUKOTRIENE ANTAGONISTS AND NSAIDS AND METHODS OF USING THE SAME” (priority 2007, published 2010).
# Conditions: general statement on long-acting NSAIDs; species not given
row,pharmacokinetic half-life,Structure (SMILES)
1,about 7 hours,CCc1cccc2c3c([nH]c12)C(CC)(CC(=O)O)OCC3 (stereo not shown) [etodolac]
2,about 6 hours,CC(C(=O)O)c1ccc(-c2ccccc2)c(F)c1 (stereo not shown) [flurbiprofen]
3,8 to 9 h,O=C(c1ccccc1)c1ccc2n1CCC2C(=O)O (stereo not shown) [ketorolac]
4,up to 4 hours,Cc1cccc(Nc2ccccc2C(=O)O)c1C [mefenamic acid]
